Assay results: patent US6348445B1, “Biologically active peptides with reduced toxicity in animals and a method for preparing same” (priority 1992, dated 2002)
Where two headings read alike, the source gives them in different places. *1 amine or outer side, *2 acyl side, *3 side chain or, on linkers, in order; H or OH if unused. Where a SMILES comes first, the peptide text is derived from it. [ ]: non-standard residue; d: D form. The star is where a group is joined. X2 = CCCCCCCCCCCCC/C=C/[C@@H](O)[C@H](CO)N*; Suc = O=C(CCC(=O)[*:2])[*:1]; Octanoyl = CCCCCCCC(=O)*; Orn = NCCC[C@H](N)C(=O)O; Hexanoyl = CCCCCC(=O)*; Pentanoyl = CCCCC(=O)*

Assays:
Format in all cases: cell-based
[1] = tested on: C. albicans
Excerpt: (§1) Table I, which follows, indicates the Minimal Inhibitory Concentration (MIC) in […] of various peptides against S.aureus strain ATCC 25923(S), P. aeruginosa strain ATCC 27853(P), E. coli ATCC strain 25922(E), and C. 4albicans (CA). […] The peptides are unsubstituted at the N-terminal; substituted with an acetyl group at the N-terminal, as indicated by Ac-; substituted with an octanoyl group at the N-terminal, as indicated by Oct-; substituted with spinogosine, as indicated by Sph-; substituted with a succinyl group, as indicated by Suc-; substituted with a hexanoyl group, as indicated by Hex-; substituted with a heptanoyl group, as indicated by Hep-; substituted with a valeryl group, as indicated by Val-; substituted with a myristryl group, as indicated by Myr-; or substituted with an ibuprofyl group, as indicated by Ibu-;
(§2) The procedure for the anti-bacterial assay is based upon the guidelines of the National Committee for Clinical Laboratory Standards, Document M7-T2, Volume 8, No. 8, 1988, which document is entirely incorporated herein by reference.
(§3) Stock solutions of peptides, with and without the appropriate substitutions, were prepared at a concentration of 512 μg/ml in sterile deionized distilled water and stored at −70° C.
(§4) The stock peptide solution was diluted in serial dilutions (1:2) down the wells of a microtiter plate so that the final concentrations of peptides in the wells were 0.25, 0.50, 1, 2, 4, 8, 16, 32, 64, 128 and 256 μg/ml. 1-5×10^5 CFUs/ml of either S. aureus ATCC 25923, E. coli ATCC 25922, P. aeruginosa ATCC 27853, or C. albicans, were added to the wells in full strength Mueller Hinton broth (BBL 11443) from a mid-log culture. The inoculum was standardized spectrophotometrically at 600 nm and was verified by colony counts. The plates were incubated for 16-20 hours at 37° C., and the minimal inhibitory concentration (MIC) for each peptide was determined. Minimal inhibitory concentration is defined as the lowest concentration of peptide which produces a clear well in the microtiter plate. The minimal inhibitory concentration of each of the peptides with and/or without the appropriate substitutions is given in Table I below.

[2] = tested on: E. coli ATCC strain 25922; experiment: Minimal Inhibitory Concentration, microtiter broth dilution
Excerpt: as §1, §2, §3, §4
(§5) The in vitro anti-microbial activities of the methane sulfonate derivatives were determined according to the methods described in Examples 1 and 2. The activities against ATCC strains of S. aureus, E. coli, P. aeruginosa, and C. albicans, and the hemolysis of red blood cells were compared to the parent compound (Table IV). The activities for Compound 843 (Oct-SEQ ID NO:143) methane sulfonate against clinical strains of P. aeruginosa isolated from cystic fibrosis patients were compared to the parent compound (Table V). The activity for Compound 469 (Oct-SEQ ID NO:27) methane sulfonate against P. gingivalis was compared to the parent compound (Table VI).

[3] = tested on: P. aeruginosa strain ATCC 27853; conditions: ATCC 27853
Excerpt: as §1, §2, §3, §4, §5

Compound | Minimal Inhibitory Concentration CA [1] [µg/mL] | Minimal Inhibitory Concentration E ([2]; ATCC strain 25922) | Minimal Inhibitory Concentration P [3] | Minimal Inhibitory Concentration CA ([1]; C. albicans, Table I) | Minimal Inhibitory Concentration E ([2]; E. coli ATCC strain 25922, Table I)
CCCCCCCC(=O)N[C@@H](CC(C)C)C(=O)N[C@@H](CCCN)C(=O)N[C@@H](CCCCN)C(=O)N[C@@H](CC(C)C)C(=O)N[C@@H](CC(C)C)C(=O)N[C@@H](CCCCN)C(=O)N[C@@H](CCCCN)C(=O)N[C@@H](CC(C)C)C(=O)N[C@@H](CCCCN)C(=O)N[C@@H](CCCCN)C(=O)N[C@@H](CC(C)C)C(N)=O [Oct-(SEQ ID NO: 141)-NH2] (Octanoyl-L[Orn]KLLKKLKKL-NH2) | 32 | 8 µg/mL | 4 µg/mL |  | 
CCCCCCCC(=O)N[C@@H](CC(C)C)C(=O)N[C@@H](CCCCN)C(=O)N[C@@H](CCCCN)C(=O)N[C@@H](CC(C)C)C(=O)N[C@@H](CC(C)C)C(=O)N[C@@H](CCCCN)C(=O)N[C@@H](CCCCN)C(=O)N[C@@H](CC(C)C)C(=O)N[C@@H](CCCCN)C(=O)N[C@@H](CCCCN)C(=O)N[C@@H](CC(C)C)C(N)=O [Oct-(SEQ ID NO: 110)-NH2] (Octanoyl-LKKLLKKLKKL-NH2) | 32 | 8 µg/mL | 4 µg/mL |  | 
H-LLKKLKKLLKKL-NH2 [(SEQ ID NO: 113)-NH2] |  | 32 µg/mL | 8,16 μg/ml |  | 
CCCCCCCCCCCCC/C=C/[C@@H](O)[C@H](CO)NC(=O)CCC(=O)N[C@@H](CCCCN)C(=O)N[C@H](C(=O)N[C@@H](C)C(=O)NCC(=O)N[C@@H](CCCCN)C(=O)N[C@H](C(=O)N[C@@H](C)C(=O)N[C@@H](CCCCN)C(=O)N[C@H](C(=O)N[C@@H](C)C(=O)NCC(=O)N[C@@H](CCCCN)C(=O)N[C@H](C(=O)N[C@@H](C)C(=O)N[C@@H](CCCCN)C(=O)N[C@H](C(=O)N[C@@H](C)C(=O)NCC(=O)N[C@@H](CCCCN)C(=O)N[C@H](C(=O)N[C@@H](C)C(N)=O)[C@@H](C)CC)[C@@H](C)CC)[C@@H](C)CC)[C@@H](C)CC)[C@@H](C)CC)[C@@H](C)CC [Sph-Suc-(SEQ ID NO: 27)-NH2] ({X2-Suc}-KIAGKIAKIAGKIAKIAGKIA-NH2) |  | 32 µg/mL | >256 µg/mL |  | 
CCCCCCCC(=O)N[C@@H](CCCCN)C(=O)N[C@@H](CCCCN)C(=O)N[C@@H](CC(C)C)C(=O)N[C@@H](CC(C)C)C(=O)N[C@@H](CCCCN)C(=O)N[C@@H](CCCCN)C(=O)N[C@@H](CC(C)C)C(=O)N[C@@H](CCCCN)C(=O)N[C@@H](CCCCN)C(=O)N[C@@H](CC(C)C)C(N)=O [Oct-(SEQ ID NO: 109)-NH2] (Octanoyl-KKLLKKLKKL-NH2) | 32 | 16 µg/mL | 4 µg/mL |  | 
CCCCCC(=O)N[C@@H](CC(C)C)C(=O)N[C@@H](CCCCN)C(=O)N[C@@H](CCCCN)C(=O)N[C@@H](CC(C)C)C(=O)N[C@@H](CC(C)C)C(=O)N[C@@H](CCCCN)C(=O)N[C@@H](CCCCN)C(=O)N[C@@H](CC(C)C)C(=O)N[C@@H](CCCCN)C(=O)N[C@@H](CCCCN)C(=O)N[C@@H](CC(C)C)C(N)=O [Hex-(SEQ ID NO: 110)-NH2] (Hexanoyl-LKKLLKKLKKL-NH2) | 64 | 16 µg/mL | 8 µg/mL |  | 
CCCCCCCC(=O)N[C@@H](CCCCN)C(=O)N[C@@H](CC(C)C)C(=O)N[C@@H](CCCCN)C(=O)N[C@@H](CCCCN)C(=O)N[C@@H](CC(C)C)C(=O)N[C@@H](CCCCN)C(=O)N[C@@H](CCCCN)C(=O)N[C@@H](CC(C)C)C(=O)N[C@@H](Cc1ccccc1)C(=O)N[C@@H](CCCCN)C(N)=O [Oct-(SEQ ID NO: 148)-NH2] (Octanoyl-KLKKLKKLFK-NH2) | 128 | 32 µg/mL | 8 µg/mL |  | 
CCCCCCCC(=O)NCC(=O)N[C@H](C(=O)N[C@@H](CCCCN)C(=O)N[C@@H](CCCCN)C(=O)N[C@@H](Cc1ccccc1)C(=O)N[C@@H](CC(C)C)C(=O)N[C@@H](CCCCN)C(=O)N[C@@H](CCCCN)C(=O)N[C@@H](C)C(=O)NCC(=O)N[C@@H](CCCCN)C(=O)N[C@@H](Cc1ccccc1)C(=O)NCC(=O)N[C@@H](CCCCN)C(=O)N[C@@H](C)C(=O)N[C@@H](Cc1ccccc1)C(N)=O)[C@@H](C)CC [Oct-(SEQ ID NO: 149)-NH2] (Octanoyl-GIKKFLKKAGKFGKAF-NH2) | 126 | 32 µg/mL | 16 µg/mL |  | 
CCCCCCCC(=O)N[C@@H](CC(C)C)C(=O)N[C@@H](CCCCN)C(=O)N[C@@H](CCCCN)C(=O)N[C@@H](CC(C)C)C(=O)N[C@@H](CCCCN)C(=O)N[C@@H](CCCCN)C(=O)N[C@@H](CC(C)C)C(N)=O [Oct-(SEQ ID NO: 106)-NH2] (Octanoyl-LKKLKKL-NH2) |  | 128 µg/mL | 32,64 μg/ml | 64,128 μg/ml | 
CCCCCCCC(=O)N[C@@H](CCCCN)C(=O)N[C@@H](CC(C)C)C(=O)N[C@@H](CC(C)C)C(=O)N[C@@H](CCCCN)C(=O)N[C@@H](CCCCN)C(=O)N[C@@H](CC(C)C)C(=O)N[C@@H](CCCCN)C(=O)N[C@@H](CCCCN)C(=O)N[C@@H](CC(C)C)C(N)=O [Oct-(SEQ ID NO: 108)-NH2] (Octanoyl-KLLKKLKKL-NH2) | 64 | 64 µg/mL | 4 µg/mL |  | 
CCCCCCCC(=O)N[C@H](C(=O)N[C@@H](CCCCN)C(=O)N[C@@H](CCCCN)C(=O)N[C@@H](CC(C)C)C(=O)N[C@@H](CC(C)C)C(=O)N[C@@H](CCCCN)C(=O)N[C@@H](CCCCN)C(=O)N[C@@H](CC(C)C)C(=O)N[C@@H](CCCCN)C(=O)N[C@@H](CCCCN)C(=O)N[C@@H](CC(C)C)C(N)=O)C(C)C [Oct-(SEQ ID NO: 146)-NH2] (Octanoyl-VKKLLKKLKKL-NH2) | 32 | 16 µg/mL | 4 µg/mL |  | 
CCCCC(=O)N[C@@H](CC(C)C)C(=O)N[C@@H](CCCCN)C(=O)N[C@@H](CCCCN)C(=O)N[C@@H](CC(C)C)C(=O)N[C@@H](CC(C)C)C(=O)N[C@@H](CCCCN)C(=O)N[C@@H](CCCCN)C(=O)N[C@@H](CC(C)C)C(=O)N[C@@H](CCCCN)C(=O)N[C@@H](CCCCN)C(=O)N[C@@H](CC(C)C)C(N)=O [Val-(SEQ ID NO: 110)-NH2] (Pentanoyl-LKKLLKKLKKL-NH2) | 32 | 32 µg/mL | 8 µg/mL |  | 
CCCCCCCC(=O)N[C@@H](CC(C)C)C(=O)N[C@@H](CCCCN)C(=O)N[C@@H](CCCCN)C(=O)N[C@@H](CC(C)C)C(=O)N[C@@H](CC(C)C)C(=O)N[C@@H](CCCCN)C(=O)N[C@@H](CCCCN)C(N)=O [Oct-(SEQ ID NO: 137)-NH2] (Octanoyl-LKKLLKK-NH2) | 256 | >256 µg/mL | 256 µg/mL |  | 
Ac-KIAGKIAKIAGKIAKIAGKIA-NH2 [Ac-(SEQ ID NO: 27)-NH2] |  | 8 µg/mL | 128 µg/mL |  | 
Ac-LKKLLKKLKKL-NH2 [Ac-(SEQ ID NO: 110)-NH2] |  | 32,64 μg/ml | 8,16 μg/ml |  | 
H-LKKLLKKLKKL-NH2 [(SEQ ID NO: 110)-NH2] |  |  | 32,64 μg/ml |  | 64,128 μg/ml
Ac-LLKKLKKLLKKL-NH2 [Ac-(SEQ ID NO: 113)-NH2] |  | 64 µg/mL | 64 µg/mL |  | 
H-KIAGKIAKIAGKIAKIAGKIA-OH [(SEQ ID NO: 27)-OH, (Lys Ile Ala Gly Lys Ile Ala)3] |  | 8 µg/mL | 128 µg/mL |  | 
